Source: BindingDB's records for patent US10071965 (The State University of New York, 2018)
pKi: −log10 of the molar value.

Biological target: T1, Enoyl-[acyl-carrier-protein] reductase [NADPH] FabI (Staphylococcus aureus (strain MRSA252), UniProt Q6GI75)
T1 sequence (Q6GI75 whole entry): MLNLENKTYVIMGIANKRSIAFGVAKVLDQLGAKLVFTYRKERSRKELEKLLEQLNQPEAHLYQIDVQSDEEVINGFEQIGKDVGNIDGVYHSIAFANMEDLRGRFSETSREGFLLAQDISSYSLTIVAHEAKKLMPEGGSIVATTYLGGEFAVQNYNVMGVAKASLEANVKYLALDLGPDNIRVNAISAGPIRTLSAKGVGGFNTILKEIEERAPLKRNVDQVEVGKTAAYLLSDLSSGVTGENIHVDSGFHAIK
Assay: Tight-binding assay
Conditions: pH 7.5

`Cc1ccc(Oc2ccccc2)c(O)c1` [US10071965, Compound PT53] was tested. Which pKi did it give?
Its pKi is 6.31.
